The supplement of paper PMC4862054

Key:
Details in all cases: incubation time: 72 h
Hs578T [1] = experiment: normalised viability (% of control), CellTiter-Blue; higher = more viable cells (100 = DMSO, 0 = benzethonium chloride kill control)
Description: (§1)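 DSRT, CellTiter-Blue viability, 72 h incubation. Signal is normalised to DMSO and benzethonium chloride controls. Value is the normalised response at dose 1.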

MDA-MB-436 [2] = experiment: as above
Description: as §1

CAL-120 = experiment: as above
Description: as §1

BT-549 [3] = experiment: as above
Description: as §1

CAL-85-1 [4] = experiment: as above
Description: as §1

MDA-MB-231 [5] = experiment: as above
Description: as §1

CAL-148 [6] = experiment: as above
Description: as §1

MFM-223 [7] = experiment: as above
Description: as §1

MDA-MB-453 = experiment: as above
Description: as §1

MDA-MB-468 [8] = experiment: as above
Description: as §1

HCC1599 [9] = experiment: as above
Description: as §1

HCC1937 [10] = experiment: as above
Description: as §1

BT-474 [11] = experiment: as above
Description: as §1

DU-4475 = experiment: as above
Description: as §1

HDQ-P1 [12] = experiment: as above
Description: as §1

CAL-51 [13] = experiment: as above
Description: as §1

SK-BR-3 [14] = experiment: as above
Description: as §1

HCC1143 = experiment: as above
Description: as §1

Hs578T [15] = experiment: normalised viability (% of control), CellTiter-Blue; higher = more viable cells (about 100 = DMSO control)
Description: (§2)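 DSRT, CellTiter-Blue viability, 72 h incubation. Signal is normalised to DMSO and benzethonium chloride controls. Value is the normalised response at dose 3.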

MDA-MB-436 [16] = experiment: as above
Description: as §2

BT-549 [17] = experiment: as above
Description: as §2

CAL-85-1 [18] = experiment: as above
Description: as §2

MDA-MB-231 [19] = experiment: as above
Description: as §2

CAL-148 [20] = experiment: as above
Description: as §2

MFM-223 [21] = experiment: as above
Description: as §2

MDA-MB-468 [22] = experiment: as above
Description: as §2

HCC1599 [23] = experiment: as above
Description: as §2

HCC1937 [24] = experiment: as above
Description: as §2

BT-474 [25] = experiment: as above
Description: as §2

HDQ-P1 [26] = experiment: as above
Description: as §2

CAL-51 [27] = experiment: as above
Description: as §2

SK-BR-3 [28] = experiment: as above
Description: as §2

`C[C@]12C=CC(=O)C=C1CC[C@@H]1[C@@H]2[C@@H](O)C[C@@]2(C)[C@H]1CC[C@]2(O)C(=O)CO` [Prednisolone] gave a normalised viability (Hs578T [1]; 1 nM) of 122%, a normalised viability (MDA-MB-436 [2]; 1 nM) of 108% and a normalised viability (CAL-120; 1 nM) of 83.5%. The normalised viability (BT-549 [3]; 1 nM) was 101%, the normalised viability (CAL-85-1 [4]; 1 nM) was 97.7% and the normalised viability (MDA-MB-231 [5]; 1 nM) was 105%. For the same compound, the normalised viability (CAL-148 [6]; 1 nM) was 111%, the normalised viability (MFM-223 [7]; 1 nM) was 102% and the normalised viability (MDA-MB-453; 1 nM) was 100%. The normalised viability (MDA-MB-468 [8]; 1 nM) was 109%, the normalised viability (HCC1599 [9]; 1 nM) was 118% and the normalised viability (HCC1937 [10]; 1 nM) was 88.8%. It also gave a normalised viability (BT-474 [11]; 1 nM) of 117%, a normalised viability (DU-4475; 1 nM) of 95.6% and a normalised viability (HDQ-P1 [12]; 1 nM) of 85.7%. For the same compound, the normalised viability (CAL-51 [13]; 1 nM) was 104%, the normalised viability (SK-BR-3 [14]; 1 nM) was 130% and the normalised viability (HCC1143; 1 nM) was 95.1%. For the same compound, the normalised viability (Hs578T [15]; 100 nM) was 81.3%, the normalised viability (MDA-MB-436 [16]; 100 nM) was 96.6% and the normalised viability (BT-549 [17]; 100 nM) was 104%. It also gave a normalised viability (CAL-85-1 [18]; 10 nM) of 109%, a normalised viability (MDA-MB-231 [19]; 100 nM) of 114% and a normalised viability (CAL-148 [20]; 10 nM) of 111%. It also gave a normalised viability (MFM-223 [21]; 100 nM) of 97%, a normalised viability (MDA-MB-468 [22]; 100 nM) of 108% and a normalised viability (HCC1599 [23]; 100 nM) of 102%. For the same compound, the normalised viability (HCC1937 [24]; 100 nM) was 94%, the normalised viability (BT-474 [25]; 100 nM) was 102% and the normalised viability (HDQ-P1 [26]; 10 nM) was 108%. It also gave a normalised viability (CAL-51 [27]; 10 nM) of 98.4% and a normalised viability (SK-BR-3 [28]; 100 nM) of 60.8%.

`CC[C@@]1(O)C(=O)OCc2c1cc1n(c2=O)Cc2cc3c(CN(C)C)c(O)ccc3nc2-1` [Topotecan] showed a normalised viability (Hs578T [1]; 0.1 nM) of 110%, a normalised viability (MDA-MB-436 [2]; 0.1 nM) of 99.9% and a normalised viability (CAL-120; 0.1 nM) of 85.9%. The normalised viability (BT-549 [3]; 0.1 nM) was 96.1%, the normalised viability (CAL-85-1 [4]; 0.1 nM) was 85.5% and the normalised viability (MDA-MB-231 [5]; 0.1 nM) was 98.6%. The normalised viability (CAL-148 [6]; 0.1 nM) was 103%, the normalised viability (MFM-223 [7]; 0.1 nM) was 100% and the normalised viability (MDA-MB-453; 0.1 nM) was 110%. It also gave a normalised viability (MDA-MB-468 [8]; 0.1 nM) of 107%, a normalised viability (HCC1599 [9]; 0.1 nM) of 90.8% and a normalised viability (HCC1937 [10]; 0.1 nM) of 81.5%. For the same compound, the normalised viability (BT-474 [11]; 0.1 nM) was 111%, the normalised viability (DU-4475; 0.1 nM) was 102% and the normalised viability (HDQ-P1 [12]; 0.1 nM) was 115%. The normalised viability (CAL-51 [13]; 0.1 nM) was 92.5%, the normalised viability (SK-BR-3 [14]; 0.1 nM) was 92.4% and the normalised viability (HCC1143; 0.1 nM) was 98.3%. The normalised viability (Hs578T [15]; 10 nM) was 101%, the normalised viability (MDA-MB-436 [16]; 10 nM) was 107% and the normalised viability (BT-549 [17]; 10 nM) was 107%. The normalised viability (CAL-85-1 [18]; 1 nM) was 91.2%, the normalised viability (MDA-MB-231 [19]; 10 nM) was 90.1% and the normalised viability (CAL-148 [20]; 1 nM) was 96.4%. For the same compound, the normalised viability (MFM-223 [21]; 10 nM) was 92.1%, the normalised viability (MDA-MB-468 [22]; 10 nM) was 93% and the normalised viability (HCC1599 [23]; 10 nM) was 109%. It also gave a normalised viability (HCC1937 [24]; 10 nM) of 81.3%, a normalised viability (BT-474 [25]; 10 nM) of 121% and a normalised viability (HDQ-P1 [26]; 1 nM) of 114%. For the same compound, the normalised viability (CAL-51 [27]; 1 nM) was 96.5% and the normalised viability (SK-BR-3 [28]; 10 nM) was 85.5%.
